Test results reported in patent US10174038B2, “Compounds and methods for antiviral treatment” (Gilead Sciences, Inc., priority 2012, dated 2019).

What follows are molecules tested on RSV strain A2 (assay: RSV antiviral activity, in vitro cytoprotection assay in Hep2 cells). Conditions: human respiratory syncytial virus, HEp-2; 0.5 μM compound; RSV-induced cytopathic effect in Hep2 cells; % inhibition calculated from fitted 4-parameter dose response curve, normalized to 0% and 100%; read-out: Percent inhibition at 0.5 μM.
Assay type: cell-based, Respiratory Syncytial Virus (RSV)
Description: Antiviral activity against RSV was determined using an in vitro cytoprotection assay in Hep2 cells. […] The method used was similar to methods previously described in published literature (Chapman et al., Antimicrob Agents Chemother. 2007, 51(9):3346-53.)
Hep2 cells were obtained from ATCC (Manassas, Va.) and maintained in MEM media supplemented with 10% fetal bovine serum and penicillin/streptomycin. Cells were passaged twice a week and kept at subconfluent stage. Commercial stock of RSV strain A2 (Advanced Biotechnologies, Columbia, Md.) was titered before compound testing to determine the appropriate dilution of the virus stock that generated desirable cytopathic effect in Hep2 cells.
For antiviral tests, Hep2 cells were seeded into 96-well plates 24 hours before the assay at a density of 3,000 cells/well. On a separate 96 well plate, compounds to be tested were serially diluted in cell culture media. Eight concentrations in 3-fold serial dilution increments were prepared for each tested compound and 100 uL/well of each dilution was transferred in duplicate onto plates with seeded Hep2 cells. Subsequently, appropriate dilution of virus stock previously determined by titration was prepared in cell culture media and 100 uL/well was added to test plates containing cells and serially diluted compounds. Each plate included three wells of infected untreated cells and three wells of uninfected cells that served as 0% and 100% virus inhibition control, respectively. Following the infection with RSV, testing plates were incubated for 4 days in a tissue culture incubator. After the incubation, RSV-induced cytopathic effect was determined using a Cell TiterGlo reagent (Promega, Madison, Wis.) followed by a luminescence read-out. The percentage inhibition was calculated for each tested concentration relative to the 0% and 100% inhibition controls and the EC50 value for each compound was determined by non-linear regression as a concentration inhibiting the RSV-induced cytopathic effect by 50%. Ribavirin (purchased from Sigma, St. Louis, Mo.) was used as a positive control for antiviral activity.
Compounds were also tested for antiviral activity against RSV in Hep2 cells using a 384 well format. Compounds were diluted in DMSO using a 10-step serial dilution in 3-fold increments via automation in 4 adjacent replicates each. Eight compounds were tested per dilution plate. 0.4 uL of diluted compounds were then stamped via Biomek into 384-well plates (Nunc 142761 or 164730 w/lid 264616) containing 20 μL of media (Mediatech Inc. MEM supplemented with Glutamine, 10% FBS and Pen/Strep). DMSO and a suitable positive control compound, such as 80 μM GS-329467 or 10 μM 427346 was used for the 100% and 0% cell killing controls, respectively.
Hep2 cells (1.0×10^5 cells/ml) were prepared as above in batch to at least 40 mls excess of the number of sample plates (8 mls cell mix per plate) and infected with vendor supplied (ABI) RSV strain A2 to arrive at an MOI of 1:1000 (virus:cell #) or 1:3000 (vol virus:cell vol). Immediately after addition of virus, the RSV infected Hep2 cell suspension was added to each stamped 384-well plate at 20 μl per well using a uFlow dispenser, giving a final volume of 40 μL/well, each with 2000 infected cells. The plates were then incubated for 5 days at 37° C. and 5% CO2. Following incubation, the plates were equilibrated to room temperature in a biosafety cabinet hood for 1.5 hrs and 40 μL of Cell-Titer Glo viability reagent (Promega) was added to each well via uFlow. Following a 10-20 minute incubation, the plates were read using an EnVision or Victor Luminescence plate reader (Perkin-Elmer). The data was then uploaded and analyzed on the Bioinformatics portal under the RSV Cell Infectivity and 8-plate EC50-Hep2-384 or 8-plate EC50-Hep2-Envision protocols. […]
With `Cc1cc(C2CC2)nc2cc([C@@H]3CCCCN3C(=O)c3cc(Cl)cc(F)c3NS(C)(=O)=O)nn12` [Compound 29] the inhibition at 0.5 µM was 90%. With `Cc1ccc(NS(C)(=O)=O)c(C(=O)N2CCCC[C@H]2c2cc3nc(C)nc(C)n3n2)c1` [Compound 103] the inhibition at 0.5 µM was 27%. Work on `Cc1cn2nc([C@@H]3CCCCN3C(=O)C(NS(C)(=O)=O)c3ccccc3)cc2nc1N1CC[C@H](N)C1` (some centres unmarked) [Compound 101] yielded an inhibition at 0.5 µM of 100%. In the case of `Cc1cn2nc([C@@H]3CCCCN3C(=O)c3cc(Cl)ccc3NS(C)(=O)=O)cc2nc1N1CCC12CNC2` [Compound 42], the inhibition at 0.5 µM is reported as 100%. `Cc1ccc(N2CCCS2(=O)=O)c(C(=O)N2CCCC[C@H]2c2cc3nc(N4CC[C@H](N)C4)c(C)cn3n2)c1` [Compound 11] gave an inhibition at 0.5 µM of 100%. In the case of `Cc1ccc(NS(C)(=O)=O)c(C(=O)N2CCCC[C@H]2c2cn3nc(N4CC[C@H](N)C4)c(C)cc3n2)c1` [Compound 115], the inhibition at 0.5 µM is reported as 100%. `CC(=O)Nc1ccc(C)cc1C(=O)N1CCCC[C@H]1c1cc2nc(N3CC(NC(=O)OC(C)(C)C)C3)c(C)cn2n1` [Compound 87] showed an inhibition at 0.5 µM of 89%. `Cc1cc(C2CC2)nc2cc([C@@H]3CCCCN3C(=O)c3cc(Cl)ccc3N)nn12` [Compound 77] gave an inhibition at 0.5 µM of 94%. Molecule `CNC1CCN(c2cc(N3CCOCC3)n3nc([C@@H]4CCCCN4C(=O)c4cc(Cl)ccc4NS(C)(=O)=O)cc3n2)C1` (some centres unmarked) [Compound 94] has an inhibition at 0.5 µM of 89%. In the case of `Cc1cn2nc([C@@H]3CCCCN3C(=O)c3cc(Cl)ccc3NS(C)(=O)=O)cc2nc1N1CCC[C@H](N)C1` [Compound 88], the inhibition at 0.5 µM is reported as 89%. With `Cc1cn2nc([C@@H]3CCCCN3C(=O)c3ccccc3)cc2nc1N1CC[C@H](N)C1` [Compound 5] the inhibition at 0.5 µM was 100%. In the case of `Cc1nc2cc([C@@H]3CCCCN3C(=O)c3cc(Cl)ccc3NS(C)(=O)=O)nn2c(N2CCC2)c1C` [Compound 78], the inhibition at 0.5 µM is reported as 99%. For `COC(=O)C1CCN1c1nc2cc([C@@H]3CCCCN3C(=O)c3cc(Cl)ccc3NS(C)(=O)=O)nn2cc1C` (some centres unmarked) [Compound 99], the inhibition at 0.5 µM was 100%. Molecule `Cc1cn2nc([C@@H]3CCCCN3C(=O)c3cc4ccccc4[nH]3)cc2nc1N1CC[C@H](N)C1` [Compound 17] has an inhibition at 0.5 µM of 96%.
